According to the RepoRT retention time repository:
Where a name gives a salt, the structure may show the parent alone.

Assay: HILIC, Merck SeQuant ZIC-HILIC, 25 °C, 0.25 mL/min; A: water + 16 mM ammonium formate; B: acetonitrile + 0.1% formic acid, pH 3; gradient (min/%B) 0/97 2/97 10/70 15/10 17/10 18/97 25/97
Conditions: stereoisomer not certain

| LC retention time [min] | Structure (SMILES) |
| --- | --- |
| 12.8 | C[n+]1cccc(C(N)=O)c1 [1-METHYLNICOTINAMIDE] |
| 5.34 | O=CNCC(=O)O [N-FORMYLGLYCINE] |
| 2.08 | O=C([O-])C(O)c1ccccc1 (stereo not given) [MANDELATE] |
| 13.3 | Nc1ncnc2c1ncn2C1CC(O)C(COP(=O)(O)O)O1 (stereo not given) [DEOXYADENOSINE MONOPHOSPHATE] |
| 1.95 | OCc1ccccc1O [2-Hydroxybenzyl alcohol ( Salicyl alcohol- Saligenin)] |
| 1.53 | COC1=C(OC)C(=O)C(CC=C(C)C)=C(C)C1=O [coenzyme Q1] |
| 1.87 | Cn1c(=O)c2c(ncn2C)n(C)c1=O [CAFFEINE] |
| 17.4 | NCCCCN [PUTRESCINE] |
| 11.2 | CCCCC(N)C(=O)O (stereo not given) [NORLEUCINE] |
| 1.71 | CCCC=O [BUTANAL] |
| 15.2 | Nc1nc2c(ncn2C2OC(COP(=O)(O)OP(=O)(O)OC3OC(CO)C(O)C(O)C3O)C(O)C2O)c(=O)[nH]1 (stereo not given) [GUANOSINE DIPHOSPHATE MANNOSE] |
| 2.13 | CC(CCC(=O)O)CC(=O)O (stereo not given) [3-Methyladipic acid] |
| 12 | Nc1c(O)cccc1C(=O)CC(N)C(=O)O (stereo not given) [HYDROXYKYNURENINE] |
| 1.61 | COC(=O)Cc1c[nH]c2ccccc12 [INDOLE-3-METHYL ACETATE] |
| 14.1 | O=P(O)(O)OCC(O)CO (stereo not given) [GLYCEROL 3-PHOSPHATE] |
| 14.9 | NCC(=O)NCC(=O)O [Gly-Gly] |
| 2.18 | CC(CCC(=O)O)C1CCC2C3C(O)CC4CC(O)CCC4(C)C3CC(O)C12C (stereo not given) [CHOLATE] |
| 14.5 | CC(=O)N[C@@H]1[C@@H](O)[C@H](O)[C@@H](CO)O[C@H]1N [2-ACETAMIDO-2-DEOXY-BETA-D-GLUCOSYLAMINE] |
| 1.8 | CC=CC=CC(=O)O [SORBATE] |
| 1.94 | COc1cc(C=CC(=O)O)ccc1O [FERULATE] |
| 11.4 | Nc1nc2c(ncn2C2OC(CO)C(O)C2O)c(=O)[nH]1 (stereo not given) [GUANOSINE] |
| 2.19 | CC(CCC(=O)O)C1CCC2C3C(O)C(O)C4CC(O)CCC4(C)C3CCC12C (stereo not given) [5b-cholanic acid-3a-6a-7a-TRIOL] |
| 13.4 | NC(Cc1ccc(O)c(O)c1)C(=O)O [3-4-DIHYDROXY-L-PHENYLALANINE] |

| LC retention time [min] | Structure (SMILES) |
| --- | --- |
| 4.75 | CSCC1OC(n2cnc3c(N)ncnc32)C(O)C1O (stereo not given) [METHYLTHIOADENOSINE] |
| 2.12 | Nc1ccc(C(=O)O)cc1 [4-AMINOBENZOATE] |
| 1.58 | CC(=O)C1CCC2C3CCC4=CC(=O)CCC4(C)C3CCC12C (stereo not given) [Progesterone] |
| 12.9 | Cn1c[n+](C2OC(CO)C(O)C2O)c2nc(N)[nH]c(=O)c21 (stereo not given) [7-Methylguanosine] |
| 11.9 | C[N+](C)(C)[O-] [trimethylamine N-oxide] |
| 2.08 | CC(=O)NC(C(=O)O)C(C)C (racemic) [N-acetyl-DL-valine] |
| 8.33 | CC(=O)NC(CO)C(=O)O (stereo not given) [N-ACETYLSERINE] |
| 2.19 | O=C(O)CCC(=O)O [succinic acid] |
| 8.77 | O=c1[nH]cnc2nc[nH]c12 [HYPOXANTHINE] |
| 2.17 | CC(CCC(=O)O)C1CCC2C3C(=O)CC4CC(O)CCC4(C)C3CC(O)C12C (stereo not given) [5b-cholanic acid-3a-12a-DIOL-7-ONE] |
| 11.6 | Cc1cnc(=O)[nH]c1N [5-METHYLCYTOSINE] |
| 19.5 | NCCCCNCCCN [SPERMIDINE] |
| 11.2 | O=c1[nH]c(=O)c2[nH]c(=O)[nH]c2[nH]1 [URATE] |
| 9.22 | CCCCCCCCCCCCCCCC(=O)OCC(O)COP(=O)(O)O (stereo not given) [16:0_LysoPA] |
| 2.18 | O=C(O)c1ccc(O)cc1O [2-4-Dihydroxybenzoic acid] |
| 2.12 | CC(=O)C(C)O (stereo not given) [ACETOIN] |
| 13 | C[n+]1cccc(C(=O)[O-])c1 [TRIGONELLINE] |
| 17.6 | NCCCN [1-3-DIAMINOPROPANE] |
| 2.14 | O=C(O)CCCCCC(=O)O [pimelic acid] |
| 14.4 | NC(CS(=O)O)C(=O)O (stereo not given) [3-SULFINOALANINE] |
| 15.2 | Nc1ccn(C2CC(O)C(COP(=O)([O-])OP(=O)([O-])[O-])O2)c(=O)n1 (stereo not given) [DEOXYCYTIDINE-DIPHOSPHATE] |
| 2.19 | Cc1cnc(C)cn1 [2-5-DIMETHYLPYRAZINE] |
| 5.68 | CC(=O)C(=O)O [pyruvic acid] |

| LC retention time [min] | Structure (SMILES) |
| --- | --- |
| 1.95 | CC(=O)NC(Cc1ccccc1)C(=O)O (stereo not given) [N-ACETYLPHENYLALANINE] |
| 12.4 | Nc1nc2c(c(=O)[nH]1)N=C(CNc1ccc(C(=O)NC(CCC(=O)O)C(=O)O)cc1)CN2 (stereo not given) [DIHYDROFOLATE] |
| 2.79 | O=C[O-] [FORMATE] |
| 2.16 | CC(=O)N[C@@H](Cc1ccc(O)cc1)C(=O)O [N-Acetyl-L-tyrosine] |
| 15 | NC(=O)C1=CN(C2OC(COP(=O)(O)OP(=O)(O)OCC3OC(n4cnc5c(N)ncnc54)C(OP(=O)(O)O)C3O)C(O)C2O)C=CC1 (stereo not given) [NADPH] |
| 13.4 | CC(C)=CC(=O)SCCNC(=O)CCNC(=O)C(O)C(C)(C)COP(=O)(O)OP(=O)(O)OCC1OC(n2cnc3c(N)ncnc32)C(O)C1OP(=O)(O)O (stereo not given) [3-METHYLCROTONYL-COA] |
| 5.07 | NC(N)=S [THIOUREA] |
| 13.9 | O=c1ccn(C2OC(COP(=O)(O)O)C(O)C2O)c(=O)[nH]1 (stereo not given) [URIDINE MONOPHOSPHATE] |
| 1.92 | COc1ccc2[nH]cc(CCNC(C)=O)c2c1 [MELATONIN] |
| 2.11 | Nc1ccccc1O [2-AMINOPHENOL] |
| 2.75 | CC(O)C(=O)O (stereo not given) [LACTATE] |
| 2.14 | Cn1c(=O)[nH]c2nc[nH]c2c1=O [1-Methylxanthine] |
| 10.2 | CC(C)CC(=O)OC(CC(=O)[O-])C[N+](C)(C)C [Isovaleryl-L-carnitine] |
| 13.9 | CN(CC(=O)O)C(=N)N [CREATINE] |
| 1.88 | O=C(O)C(=O)Cc1c[nH]c2ccccc12 [INDOLE-3-PYRUVATE] |
| 10.2 | CCCCCCCCCCCCCCCC(=O)OCC(O)COP(=O)(O)OCCN (stereo not given) [16-0_LysoPE] |
| 11.2 | NC(=O)NC1NC(=O)NC1=O (stereo not given) [ALLANTOIN] |
| 8.64 | Nc1ncnc2c1ncn2C1OC(CO)C(O)C1O (stereo not given) [ADENOSINE] |
| 1.54 | c1ccc(CNc2ccccc2)cc1 [N-benzylaniline] |
| 9 | O=c1ccn(C2OC(CO)C(O)C2O)c(=O)[nH]1 (stereo not given) [URIDINE] |
| 16.9 | NCCS [CYSTEAMINE] |
| 13.2 | CC(=O)NC(CSSCC(NC(C)=O)C(=O)O)C(=O)O (stereo not given) [N-ACETYLCYSTEINE-dimere] |
| 8.88 | O=C(O)c1cccnc1C(=O)O [QUINOLINATE] |

| LC retention time [min] | Structure (SMILES) |
| --- | --- |
| 2.19 | CC(C)C(C(=O)O)C(O)C(=O)O (stereo not given) [3-isopropylmalic acid] |
| 1.89 | CC12CCC(=O)C=C1CCC1C2C(O)CC2(C)C1CCC2(O)C(=O)CO (stereo not given) [CORTISOL] |
| 15 | O=c1ccn(C2OC(COP(=O)(O)OP(=O)(O)O)C(O)C2O)c(=O)[nH]1 (stereo not given) [URIDINE 5'-DIPHOSPHATE] |
| 9.44 | Cn1c(=O)[nH]c2[nH]c(=O)[nH]c2c1=O [1-Methyluric acid] |
| 14.4 | Nc1nc2c(ncn2C2CC(O)C(COP(=O)(O)O)O2)c(=O)[nH]1 (stereo not given) [dGMP sodium salt hydrate] |
| 1.81 | C=Cc1c(C)c2cc3[nH]c(cc4nc(cc5nc(cc1[nH]2)C(C)=C5CCC(=O)O)C(CCC(=O)O)=C4C)c(C)c3C=C [PROTOPORPHYRIN] |
| 1.55 | C=C(C)C1CC=C(C)C(=O)C1 [(R)-(-)-Carvone] |
| 14.2 | NC(=O)c1ncn(C2OC(COP(=O)(O)O)C(O)C2O)c1N (stereo not given) [AICAR] |
| 2.11 | C=C(C)CCOP(=O)(O)OP(=O)(O)O [ISOPENTENYL PYROPHOSPHATE] |
| 13.6 | Nc1ccn(C2OC(CO)C3OP(=O)(O)OC32)c(=O)n1 (stereo not given) [CYTIDINE 2'-3'-CYCLIC PHOSPHATE] |
| 2.18 | O=C(O)C(=O)Cc1ccccc1 [PHENYLPYRUVATE] |
| 13.9 | NCCS(=O)O [HYPOTAURINE] |
| 11.8 | NC(C(=O)O)c1ccccc1 (stereo not given) [2-Phenylglycine] |
| 1.68 | CC(=O)C1(O)CCC2C3CCC4=CC(=O)CCC4(C)C3C(O)CC21C (stereo not given) [21-Deoxycortisol] |
| 15.3 | Nc1ncnc2c1ncn2C1OC(COP(=O)(O)OP(=O)([O-])OCC2OC([n+]3cccc(C(=O)O)c3)C(O)C2O)C(O)C1OP(=O)(O)O (stereo not given) [NICOTINIC ACID ADENINE DINUCLEOTIDE PHOSPHATE] |
| 12.6 | NCCCCC(=O)O [5-AMINOPENTANOATE] |
| 14.6 | NC(=O)c1ccc[n+](C2OC(COP(=O)(O)OP(=O)(O)OCC3OC(n4cnc5c(N)ncnc54)C(O)C3O)C(O)C2O)c1 (stereo not drawn) [BETA-NICOTINAMIDE ADENINE DINUCLEOTIDE] |
| 15.8 | Cn1cnc(C[C@H](N)C(=O)O)c1 [1-METHYL-L-HISTIDINE] |
| 14.1 | NC(=O)CC[C@H](N)C(=O)O [L-Glutamine] |
| 13.4 | NCC(O)c1ccc(O)c(O)c1 (stereo not given) [NORADRENALINE] |
| 6.53 | CC(O)(CC(=O)O)C(=O)O (stereo not given) [CITRAMALATE] |
| 8.75 | O=CC(O)C1OC(=O)C(O)C1O [D-GLUCURONOLACTONE] |

| Structure (SMILES) | LC retention time [min] |
| --- | --- |
| COc1cc(CCN)ccc1O [3-METHOXYTYRAMINE] | 11 |
| O=C/C=C/c1ccccc1 [Trans-Cinnamaldehyde] | 1.57 |
| NC1CCSC1=O (stereo not given) [HOMOCYSTEINE THIOLACTONE] | 11.8 |
| NCC(O)c1ccc(O)cc1 (stereo not given) [P-OCTOPAMINE] | 12.4 |
